# Test results published in patent US20240408130A1, “Combination of Silicon and Magnesium for the Prevention and Treatment of Muscle Cramps” (Bio Minerals NV, priority 2019, published 2024).
# Values joined by “and” are separate entries in the source; they are usually repeats but may differ in a detail not shown here. Equal entries are not always repeated. Structures can show the parent of a compound that is named as a salt.
# Experiments:
# muscle cramps [1] = experiment: Cross-over trial in patients with frequent muscle cramps, cramp frequency recorded daily in a diary (Example 8); format: in vivo, human
# Procedure: Female and male patients (age 33 to 86 years) experiencing frequent muscle cramps participated in a cross-over trial. The design of the cross-over trial is as follows: • Period 1:2 weeks orally 400 mg Mg/day (magnesium citrate), • Period 2:2 weeks orally 400 mg Mg/day+10 mg Si/day (magnesium citrate and choline-stabilized orthosilicic acid), • Period 3:2 weeks orally 200 mg Mg/day+5 mg Si/day (magnesium citrate and choline-stabilized orthosilicic acid). • Parameters: patients recorded the frequency of cramps daily in a diary.
# muscle cramps [2] = conditions: cited from earlier work
# muscle cramps [3] = experiment: Case reports of patients with muscle cramps given magnesium alone or Biosil plus Promagnor (Examples 1-7); format: in vivo, human; conditions: patient, recurrent skeletal muscle cramps for 23 years; magnesium salt alone, 450 mg per day
# Description: A patient had recurrent muscle cramps during a period of 23 years. Muscle cramps occurred in skeletal muscles in hands, lower arms and legs, as well as in intercostal muscles. […] Muscle cramps occurred during the day as well as during the night, at a frequency of several cramps per day. As a consequence, the muscle cramps prohibited working as a doctor and further prohibited swimming or any other sport. […] This ineffective result is consistent with the conclusions of Garrison (supra) and Young (supra), that magnesium supplementation is not effective in the treatment of muscle cramps.
# The patient thereafter switched to a therapy comprising on a daily basis 10 mg stabilized silicic acid, wherein the silicic acid was in the form of orthosilicic acid and/or oligomers. The stabilizer was choline, which was administered at a daily dose of 200 mg. This combination is sold as Biosil® and is commercially available from Bio Minerals N.V., Destelbergen, Belgium. Use was made of the solid form of Biosil®. Two capsules per day were administered. The magnesium dose was 450 mg, and was in the form of magnesium phosphate, magnesium citrate, or magnesium bicarbonate. It was a dosage form of magnesium commercially supplied as Promagnor™ by Merck Consumer Healthcare nv, Overijse, Belgium. […]
# muscle cramps [4] = experiment: Comparative trial in 11 patients with frequent muscle cramps, cramp frequency recorded daily in a diary (Example 9); format: in vivo, human
# Procedure: Seven female and 4 male patients (age 27 to 86 years, mean age 56 years) experiencing frequent muscle cramps participated in a comparative trial with the following design: • Period 1: During 1 week 11 patients either • (a) continued with their oral magnesium supplement (6 patients), or • (b) changed from their oral magnesium treatment (2 patients) to an oral magnesium supplement of 180 mg Mg/day (magnesium malate), or • (c) changed from “no magnesium” pretreatment (3 patients) to an oral magnesium supplement of 180 mg Mg/day (magnesium malate). • One patient had taken quinine sulfate prior to period 1. • Period 2: all patients (n=11) took 4 weeks 360 mg Mg/day (magnesium malate)+10 mg Si/day (choline-stabilized orthosilicic acid, ch-OSA®) • Parameters: patients recorded daily the frequency of cramps in a diary.
molecule,measurement,setting,value
magnesium citrate [Mg],"cramps/day, individual patients","muscle cramps [1]; A: 2 weeks 400 mg Mg/day orally (magnesium citrate), patients 1-6, one value per patient",0.43 cramps/day (2×) and 1.07 cramps/day and 0.36 cramps/day and 1.79 cramps/day and 0.5 cramps/day
same,"cramps/day, Mean","muscle cramps [1]; A: 2 weeks 400 mg Mg/day orally, mean of 6 patients",0.76 cramps/day
same,effect on number of cramps,"muscle cramps [2]; Class II study, 900 mg",could not conclude that there was a significant improvement in the number of cramps
[Mg] [magnesium],effect on recurrent muscle cramps,muscle cramps [3],not effective and did not provide any relief or inhibition of the muscle cramps
same,conclusion on frequency of cramps,"muscle cramps [1]; magnesium alone versus combination with bioavailable silicon supplement, Example 8",not effective in reducing the frequency of cramps compared to the combination
same,Number of cramps Mean ± SE,"muscle cramps [4]; Week 1: own oral magnesium supplement or 180 mg Mg/day (magnesium malate), n=11",18.9 ± 7.4^
same,conclusion on relief of muscle cramps,"muscle cramps [4]; monotherapy of oral magnesium, Example 9",not effective in relieving muscle cramps
same,cramp prophylaxis,"muscle cramps [2]; Garrison 2012 Cochrane review of seven trials, older adults with skeletal muscle cramps",unlikely that magnesium supplementation provides a clinically meaningful cramp prophylaxis to older adults
same,effect on leg cramps in pregnancy,"muscle cramps [2]; Leal de Araújo 2020, oral magnesium supplementation during pregnancy",did not reduce the occurrence and frequency of episodes of leg cramps
CCN(CC)CCOC(=O)C(Cc1cccc2ccccc12)CC1CCCO1 (stereo not drawn) [naftidrofuryl oxalate],effect on cramps and sleep disturbance,muscle cramps [2]; literature study,"no effect on the mean number of cramps, number of nights with cramps or sleep disturbance"
COc1ccc([C@@H]2Sc3ccccc3N(CCN(C)C)C(=O)[C@@H]2OC(C)=O)cc1 [diltiazem hydrochloride],effect on intensity of cramps,muscle cramps [2]; Class II study,no effect on the intensity of cramps
O=S(=O)([O-])[O-].[Mg+2] [magnesium sulphate],"effect on number of cramps, severity, duration, sleep disturbance","muscle cramps [2]; Class II study, 300 mg dose, versus placebo","not superior to placebo for number of cramps, severity, duration or sleep disturbance"
NCC1(CC(=O)O)CCCCC1 [Gabapentin],effect on symptom scores,"muscle cramps [2]; Class I clinical study, versus placebo",no difference was found between treatment and placebo with respect to any symptom score
C=C[C@H]1C[N@@]2CC[C@H]1C[C@H]2[C@H](O)c1ccnc2ccc(OC)cc12 [quinine],side effects,muscle cramps [2]; reported in the literature (Katzberg 2010; FDA alert 2012),common and serious side effects
same,effect on idiopathic leg cramps,"muscle cramps [2]; systematic reviews and randomized clinical trials (Young 2015), versus placebo",may reduce the frequency of idiopathic leg cramps at night compared to placebo
